Data on 32 compounds can be found in US9290453B2 (Merck Sharp & Dohme Corp., priority 2010, dated 2016).

Counter-ions that a name gives are not always drawn.

The first experiment has as its target T1, hCRTH2 (Homo sapiens, UniProt Q9Y5Y4).
T1 construct: expressed in transfected cells; host or cells: HEK (human embryonic kidney) cells expressing hCRTH2
T1 sequence (Q9Y5Y4 1-395): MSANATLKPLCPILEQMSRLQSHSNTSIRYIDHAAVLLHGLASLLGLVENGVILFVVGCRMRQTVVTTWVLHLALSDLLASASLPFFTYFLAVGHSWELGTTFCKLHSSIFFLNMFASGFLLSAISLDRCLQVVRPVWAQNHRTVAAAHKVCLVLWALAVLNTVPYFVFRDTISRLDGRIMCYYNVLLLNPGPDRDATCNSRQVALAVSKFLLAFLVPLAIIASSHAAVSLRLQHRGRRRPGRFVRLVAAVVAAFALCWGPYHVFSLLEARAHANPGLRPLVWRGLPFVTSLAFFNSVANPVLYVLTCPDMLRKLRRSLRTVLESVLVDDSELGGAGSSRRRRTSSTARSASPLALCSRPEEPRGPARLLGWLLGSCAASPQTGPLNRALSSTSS
The experiment in a line: Radioligand Binding Assay A ([3H]PGD2 filtration binding, HEK-hCRTH2 membranes). The settings on record: Table A, rated A-D. As for the experimental part: Radioligand binding assays were performed at room temperature in 50 mM Tris-HCl pH 7.4, 1 mM EDTA containing 2 mM MnCl2 and 3.0 nM [^3H]PGD2 (New England Nuclear, Boston, Mass.) (171 Ci mmol^−1), in a final volume of 0.2 ml. Competing ligands were diluted in dimethylsulfoxide (Me2SO) that was kept constant at 1% (v/v) of the final incubation volume. The reaction was initiated by the addition of 8-20 μg of membrane protein prepared from a human embryonic kidney (HEK)-hCRTH2 cell line. Total and non-specific binding were determined in the absence and the presence of 10 μM PGD2, respectively. Under these conditions, specific binding (total minus non-specific) of the radioligand to the receptor reached equilibrium within 50 min and was stable up to 180 min. The reaction was routinely conducted for 60 min at room temperature and terminated by rapid filtration through prewetted (0.3% polyethyleneimine) 96-well printed Filtermate™ (Wallac) using a Tomtec® harvester (Hamden, Conn.). After washing with cold buffer, the filter was dried for 2 minutes in microwave, and Meltilex Scintillator sheet (Wallac) was melted on for 2 min. The radioactivity was measured with Betaplate model 1205 (Wallac).
As usually defined, the Ki is a measure of affinity in units of concentration, obtained from inhibition or displacement. Read a high Ki as weaker binding. Turning to `O=C(O)CCCCc1cc2cc(C(=O)NCc3ccc(OC(F)(F)F)cc3)ccc2nc1-c1ccccc1` [Compound 1, 5-(2-phenyl-6-(4-(trifluoromethoxy)benzylcarbamoyl)quinolin-3-yl)pentanoic acid trifluoroacetate], the Ki is 2.1 to 20 nM.

`O=C(O)CCCCc1cc2cc(C(=O)NCCCN3CCCC3=O)ccc2nc1-c1ccccc1` [Compound 1AA, 6-[[[3-(2-oxo-1-pyrrolidinyl)propyl]amino]carbonyl]-2-phenyl-3-quinolinepentanoic acid] came in with a Ki of 2.1 to 20 nM.

`O=C(O)CCCCc1cc2cc(C(=O)Nc3cc4ccccc4[nH]3)ccc2nc1-c1ccccc1` [Compound 1AB, 6-[(1H-indol-2-ylamino)carbonyl]-2-phenyl-3-quinolinepentanoic acid]: the Ki fell in the range of 2.1 to 20 nM.

For `CCCCCCCCCNC(=O)c1ccc2nc(-c3ccccc3)c(CCCCC(=O)O)cc2c1` [Compound 1AC, 6-[(nonylamino)carbonyl]-2-phenyl-3-quinolinepentanoic acid], the Ki lay within 2.1 to 20 nM.

Compound `C[C@@H](NC(=O)c1ccc2nc(-c3ccccc3)c(CCCCC(=O)O)cc2c1)c1ccc(Cl)cc1` [Compound 1AD, 6-[[[1(R)-(4-chlorophenyl)ethyl]amino]carbonyl]-2-phenyl-3-quinolinepentanoic acid] returned a Ki of 2.1 to 20 nM.

The compound `C[C@H](NC(=O)c1ccc2nc(-c3ccccc3)c(CCCCC(=O)O)cc2c1)c1ccc(Cl)cc1` [Compound 1AE, 6-[[[1(S)-(4-chlorophenyl)ethyl]amino]carbonyl]-2-phenyl-3-quinolinepentanoic acid] returned a Ki of 2.1 to 20 nM.

In turn, `O=C(O)CCCCc1cc2cc(C(=O)N[C@H](c3ccc(Cl)cc3)C(F)(F)F)ccc2nc1-c1ccccc1` [Compound 1AF, 6-[[[1(R)-(4-chlorophenyl)-2,2,2-trifluoroethyl]amino]carbonyl]-2-phenyl-3-quinolinepentanoic acid] yielded a Ki of 2.1 to 20 nM.

As for `O=C(O)CCCCc1cc2cc(C(=O)NCc3cccc(Cl)c3)ccc2nc1-c1ccccc1` [Compound 1D, 6-[[[(3-chlorophenyl)methyl]amino]carbonyl]-2-phenyl-3-quinolinepentanoic acid], the Ki is 2.1 to 20 nM.

The compound `Cc1ccc(CNC(=O)c2ccc3nc(-c4ccccc4)c(CCCCC(=O)O)cc3c2)cc1` [Compound 1E, 6-[[[(4-methylphenyl)methyl]amino]carbonyl]-2-phenyl-3-quinolinepentanoic acid] showed a Ki of 2.1 to 20 nM.

The compound `O=C(O)CCCCc1cc2cc(C(=O)NCc3ccc(C(F)(F)F)cc3)ccc2nc1-c1ccccc1` [Compound 1F, 2-phenyl-6-[[[[4-(trifluoromethyl)phenyl]methyl]amino]carbonyl]-3-quinolinepentanoic acid] had a Ki of 2.1 to 20 nM.

As for `O=C(O)CCCCc1cc2cc(C(=O)N[C@@H](c3ccccc3)C(F)(F)F)ccc2nc1-c1ccccc1` [Compound 1G, 2-phenyl-6-[[(2,2,2-trifluoro-1(S)-phenylethyl)amino]carbonyl]-3-quinolinepentanoic acid], the Ki lay within 2.1 to 20 nM.

For `O=C(O)CCCCc1cc2cc(C(=O)N[C@H](c3ccccc3)C(F)(F)F)ccc2nc1-c1ccccc1` [Compound 1H, 2-phenyl-6-[[(2,2,2-trifluoro-1(R)-phenylethyl)amino]carbonyl]-3-quinolinepentanoic acid], the Ki was in the range of 2.1 to 20 nM.

Compound `O=C(O)CCCCc1cc2cc(C(=O)N3CC[C@H](c4ccccc4)C3)ccc2nc1-c1ccccc1` [Compound 1J, 2-phenyl-6-[(3(R)-phenyl-1-pyrrolidinyl)carbonyl]-3-quinolinepentanoic acid] showed a Ki of 2.1 to 20 nM.

The compound `O=C(O)CCCCc1cc2cc(C(=O)N3CCC[C@@H](c4ccccc4)C3)ccc2nc1-c1ccccc1` [Compound 1K, 2-phenyl-6-[(3(S)-phenyl-1-piperidinyl)carbonyl]-3-quinolinepentanoic acid] displayed a Ki of 2.1 to 20 nM.

Turning to `O=C(O)CCCCc1cc2cc(C(=O)N3CCC[C@H](c4ccccc4)C3)ccc2nc1-c1ccccc1` [Compound 1L, 2-phenyl-6-[(3(R)-phenyl-1-piperidinyl)carbonyl]-3-quinolinepentanoic acid], the Ki fell in the range of 2.1 to 20 nM.

Turning to `O=C(O)CCCCc1cc2cc(C(=O)N[C@@H]3CCc4ccccc43)ccc2nc1-c1ccccc1` [Compound 1M, 6-[[(2,3-dihydro-1H-inden-1(R)-yl)amino]carbonyl]-2-phenyl-3-quinolinepentanoic acid], the Ki fell in the range of 2.1 to 20 nM.

Compound `O=C(O)CCCCc1cc2cc(C(=O)N[C@H]3CCc4ccccc43)ccc2nc1-c1ccccc1` [Compound 1N, 6-[[(2,3-dihydro-1H-inden-1(S)-yl)amino]carbonyl]-2-phenyl-3-quinolinepentanoic acid] registered a Ki of 2.1 to 20 nM.

For the compound `O=C(O)CCCCc1cc2cc(C(=O)N[C@H]3CCCc4ccccc43)ccc2nc1-c1ccccc1` [Compound 1P, 2-phenyl-6-[[(1,2,3,4-tetrahydro-1(S)-naphthalenyl)amino]carbonyl]-3-quinolinepentanoic acid], the inhibition constant Ki was in the range of 2.1 to 20 nM.

`O=C(O)CCCCc1cc2cc(C(=O)NC3Cc4ccccc4C3)ccc2nc1-c1ccccc1` [Compound 1Q, 6-[[(2,3-dihydro-1H-inden-2-yl)amino]carbonyl]-2-phenyl-3-quinolinepentanoic acid] yielded a Ki of 2.1 to 20 nM.

With `O=C(O)CCCCc1cc2cc(C(=O)N3CCC(c4ccccc4)CC3)ccc2nc1-c1ccccc1` [Compound 1R, 2-phenyl-6-[(4-phenyl-1-piperidinyl)carbonyl]-3-quinolinepentanoic acid], the Ki was 0.1 to 2 nM.

Turning to `C[C@@H](NC(=O)c1ccc2nc(-c3ccccc3)c(CCCCC(=O)O)cc2c1)c1ccccc1` [Compound 1S, 2-phenyl-6-[[(l(R)-phenylethyl)amino]carbonyl]-3-quinolinepentanoic acid], the Ki was 2.1 to 20 nM.

Turning to `C[C@H](NC(=O)c1ccc2nc(-c3ccccc3)c(CCCCC(=O)O)cc2c1)c1ccccc1` [Compound 1T, 2-phenyl-6-[[(l(S)-phenylethyl)amino]carbonyl]-3-quinolinepentanoic acid], the Ki lay in the range of 2.1 to 20 nM.

`CN(Cc1ccccc1)C(=O)c1ccc2nc(-c3ccccc3)c(CCCCC(=O)O)cc2c1` [Compound 1U, 6-[[methyl(phenylmethyl)amino]carbonyl]-2-phenyl-3-quinolinepentanoic acid]: the Ki is 2.1 to 20 nM.

`O=C(O)CCCCc1cc2cc(C(=O)NCc3ccc(C(F)(F)F)nc3)ccc2nc1-c1ccccc1` [Compound 1V, 2-phenyl-6-[[[[6-(trifluoromethyl)-3-pyridinyl]methyl]amino]carbonyl]-3-quinolinepentanoic acid] had an inhibition constant Ki of 2.1 to 20 nM.

The compound `CC(NC(=O)c1ccc2nc(-c3ccccc3)c(CCCCC(=O)O)cc2c1)c1ccncc1` (centres unmarked) [Compound 1W, 2-phenyl-6-[[[1-(4-pyridinyl)ethyl]amino]carbonyl]-3-quinolinepentanoic acid] had a Ki of 20.1 to 200 nM.

As for `O=C(O)CCCCc1cc2cc(C(=O)NCc3cccnc3)ccc2nc1-c1ccccc1` [Compound 1X, 2-phenyl-6-[[(3-pyridinylmethyl)amino]carbonyl]-3-quinolinepentanoic acid], the Ki lay in the range of 20.1 to 200 nM.

In turn, `O=C(O)CCCCc1cc2cc(C(=O)NCc3ccncc3)ccc2nc1-c1ccccc1` [Compound 1Y, 2-phenyl-6-[[(4-pyridinylmethyl)amino]carbonyl]-3-quinolinepentanoic acid] returned a Ki of 20.1 to 200 nM.

In the case of `O=C(O)CCCCc1cc2cc(C(=O)NCCCN3CCCC3)ccc2nc1-c1ccccc1` [Compound 1Z, 2-phenyl-6-[[[3-(1-pyrrolidinyl)propyl]amino]carbonyl]-3-quinolinepentanoic acid], the Ki was 201 to 700 nM.

For the compound `O=C(O)CCCCc1cc2cc(C(=O)N3CC[C@@H](c4ccccc4)C3)ccc2nc1-c1ccccc1` [Compound 1i, 2-phenyl-6-[(3(S)-phenyl-1-pyrrolidinyl)carbonyl]-3-quinolinepentanoic acid], the Ki fell in the range of 2.1 to 20 nM.

Compound `O=C(O)CCCCc1cc2cc(C(=O)N[C@@H]3CCCc4ccccc43)ccc2nc1-c1ccccc1` [Compound 1o, 2-phenyl-6-[[(1,2,3,4-tetrahydro-1(R)-naphthalenyl)amino]carbonyl]-3-quinolinepentanoic acid] gave a Ki of 2.1 to 20 nM.

Compound `Cc1cccc(CNC(=O)c2ccc3nc(-c4ccccc4)c(CCCCC(=O)O)cc3c2)c1` [Compound 2A, 6-[[[(3-methylphenyl)methyl]amino]carbonyl]-2-phenyl-3-quinolinepentanoic acid] had a Ki of 2.1 to 20 nM.

`O=C(O)CCCCc1cc2cc(C(=O)NCc3ccc(Cl)cc3)ccc2nc1-c1ccccc1` [Compound 2B, 6-[[[(4-chlorophenyl)methyl]amino]carbonyl]-2-phenyl-3-quinolinepentanoic acid] gave a Ki of 2.1 to 20 nM.

Still in this experiment, the particulars now being: values in text.
Turning to `C[C@@H](NC(=O)c1ccc2nc(-c3ccccc3)c(CCCCC(=O)O)cc2c1)c1ccc(Cl)cc1` [Compound 1AD, 6-[[[1(R)-(4-chlorophenyl)ethyl]amino]carbonyl]-2-phenyl-3-quinolinepentanoic acid], the affinity, expressed as Ki, was 3.5 nM. This counts as single-digit nanomolar.

The compound `Cc1ccc(CNC(=O)c2ccc3nc(-c4ccccc4)c(CCCCC(=O)O)cc3c2)cc1` [Compound 1E, 6-[[[(4-methylphenyl)methyl]amino]carbonyl]-2-phenyl-3-quinolinepentanoic acid] registered a Ki of 4.4 nM.

In the case of `O=C(O)CCCCc1cc2cc(C(=O)N[C@@H]3CCc4ccccc43)ccc2nc1-c1ccccc1` [Compound 1M, 6-[[(2,3-dihydro-1H-inden-1(R)-yl)amino]carbonyl]-2-phenyl-3-quinolinepentanoic acid], the Ki is 3.8 nM.

`O=C(O)CCCCc1cc2cc(C(=O)N3CCC(c4ccccc4)CC3)ccc2nc1-c1ccccc1` [Compound 1R, 2-phenyl-6-[(4-phenyl-1-piperidinyl)carbonyl]-3-quinolinepentanoic acid]: the Ki was found to be 1.8 nM.

`O=C(O)CCCCc1cc2cc(C(=O)NCc3cccnc3)ccc2nc1-c1ccccc1` [Compound 1X, 2-phenyl-6-[[(3-pyridinylmethyl)amino]carbonyl]-3-quinolinepentanoic acid] yielded a Ki of 28.9 nM.

Regarding `O=C(O)CCCCc1cc2cc(C(=O)NCCCN3CCCC3)ccc2nc1-c1ccccc1` [Compound 1Z, 2-phenyl-6-[[[3-(1-pyrrolidinyl)propyl]amino]carbonyl]-3-quinolinepentanoic acid], the affinity, expressed as Ki, was 570 nM.
